Data as given in the Deep4Chem optical property database.

Test: solvent given as SMILES

**Q.** Which absorption maximum (in ClCCl) does the source give for `CN(C)c1ccc(C2=Nc3ccc4c(C(F)(F)F)cc(C(F)(F)F)nc4[n+]3[B-](F)(F)O2)cc1` here?
**A.** Its absorption maximum is 480 nm.

**Q.** For `CN(C)c1cc2oc3cc(N(C)C)c(F)cc3c(=O)c2cc1F`, which absorption maximum (in CCO) is on record?
**A.** Its absorption maximum is 378 nm.

**Q.** Which absorption maximum (in ClC(Cl)(Cl)Cl) does the source give for `CC(=O)OC[C@H]1O[C@@H]([C@@H]2C=CC(=S)NC2=O)[C@H](OC(C)=O)[C@@H]1OC(C)=O` here?
**A.** Its absorption maximum is 420 nm.

**Q.** Which absorption maximum (in Cc1ccccc1) does the source give for `c1cc2c3c(c1)-c1ccc4c5c(ccc(c15)B3c1ccc3c5c(ccc-2c15)CC3)CC4` here?
**A.** The absorption maximum was 495 nm.

**Q.** For `COc1ccc2c3ccc(OC)cc3n(-c3ccc(-c4nnc(C)o4)cc3)c2c1`, which absorption maximum (in Cc1ccccc1) is on record?
**A.** Its absorption maximum is 319 nm.

**Q.** Which absorption maximum (in CC#N) does the source give for `Cc1cc2nc3c(=O)n(C)c(=O)n(C)c3nc2cc1C` here?
**A.** Its absorption maximum is 375 nm.

**Q.** For `N#Cc1nc(-n2c3ccccc3c3ccccc32)cc(-n2c3ccccc3c3ccccc32)n1`, which absorption maximum (in Cc1ccccc1) is on record?
**A.** The absorption maximum was 371 nm.

**Q.** Which absorption maximum (in C1CCCCC1) does the source give for `Cc1cc(C)c(B2c3cc(C(C)(C)C)cc4ccc5c6ccccc6c6cc(C(C)(C)C)cc2c6c5c34)c(C)c1` here?
**A.** The absorption maximum was 424 nm.

**Q.** Which absorption maximum (in CO) does the source give for `CC1(C)C2=[N+](CCCCCC(=O)NCCNC(=O)CCCCCN3/C(=C/C=C/C=C/C=C/2)C(C)(C)c2cc(S(=O)(=O)[O-])ccc23)c2ccc(S(=O)(=O)[O-])cc21` here?
**A.** Its absorption maximum is 755 nm.

**Q.** And the absorption maximum (in O)?
**A.** Its absorption maximum is 750 nm.

**Q.** For `CCCCc1cc2cccc[n+]2[b-]2c(-c3cccc4[b-]3[n+]3ccccc3cc4CCCC)cccc21`, which absorption maximum (in C1CCCCC1) is on record?
**A.** The absorption maximum was 446 nm.

**Q.** Which absorption maximum (in ClC(Cl)Cl) does the source give for `COc1ccc2c(c1)SCC1=C(c3ccccc3)C3=Nc4c(-c5ccccc5)c5c(n4[B-](F)(F)[N+]3=C12)-c1ccc(OC)cc1SC5` here?
**A.** Its absorption maximum is 706 nm.

**Q.** Which absorption maximum (in C1CCCCC1) does the source give for `COc1ccc(/C=C/c2nc3ccccc3s2)cc1` here?
**A.** Its absorption maximum is 350 nm.

**Q.** And the absorption maximum (in CO)?
**A.** The absorption maximum was 350 nm.

**Q.** For `c1ccc(-c2nc(-c3ccccc3)nc(-c3ccc(-c4ccc5c(c4)C4(c6ccccc6-c6ccccc64)c4cc(-c6ccc(-c7nc(-c8ccccc8)nc(-c8ccccc8)n7)cc6)ccc4N5c4ccccc4)cc3)n2)cc1`, which absorption maximum (in c1cc(-c2cccc(-n3c4ccccc4c4ccccc43)c2)cc(-n2c3ccccc3c3ccccc32)c1) is on record?
**A.** The absorption maximum was 405.11 nm.

**Q.** For `Cc1cc(O)c(C(=O)/C=C/c2ccc(Cl)cc2Cl)c(=O)o1`, which absorption maximum (in CC#N) is on record?
**A.** The absorption maximum was 349 nm.

**Q.** And the absorption maximum (in ClCCl)?
**A.** The absorption maximum was 350 nm.

**Q.** Which absorption maximum (in CCO) does the source give for `CCOC(=O)/C=C/c1cc2ccc(O)cc2oc1=O` here?
**A.** The absorption maximum was 367 nm.

**Q.** With `CCOC(=O)c1cc(C(=O)OCC)c2cc(N(CC)CC)ccc2n1` as the molecule, how does the absorption maximum (in CCO) read?
**A.** The absorption maximum was 453 nm.

**Q.** What does the source list for `COc1cccc(C2=CC3=C(c4c(C)cc(C)cc4C)c4cc(-c5cccc(OC)c5)c(-c5cccc(OC)c5)n4[B-](F)(F)[N+]3=C2c2cccc(OC)c2)c1`?
**A.** absorption maximum (in C1CCCCC1): 596 nm; absorption maximum (in C1CCOC1): 592 nm; absorption maximum (in CC#N): 581 nm; absorption maximum (in Cc1ccccc1): 596 nm; absorption maximum (in ClCCl): 588 nm

**Q.** With `CCCCn1c2c(-c3ccc(N(c4ccccc4)c4ccccc4)cc3)cc(C#N)cc2c2cc(C#N)cc(-c3ccc(N(c4ccccc4)c4ccccc4)cc3)c21` as the molecule, how does the absorption maximum (in ClCCl) read?
**A.** The absorption maximum was 351 nm.

**Q.** For `c1ccc(-n2cccc2)cc1`, which absorption maximum (in CC#N) is on record?
**A.** The absorption maximum was 252 nm.

**Q.** What about the absorption maximum (in CCCCCC) of the same molecule?
**A.** The absorption maximum was 254 nm.

**Q.** With `CC(C)(C)/C=C1\C=C(c2ccccc2)C=C1c1ccccc1` as the molecule, how does the absorption maximum (in C1CCOC1) read?
**A.** Its absorption maximum is 400 nm.

**Q.** For `Cc1cc(C)c(B(c2cc(-c3ccc(C(C)(C)C)cc3)sc2-c2sc(-c3ccc(C(C)(C)C)cc3)cc2P(=O)(c2ccccc2)c2ccccc2)c2c(C)cc(C)cc2C)c(C)c1`, which absorption maximum (in CO) is on record?
**A.** The absorption maximum was 396 nm.

**Q.** For `C(=C/c1ccc(N(c2ccccc2)c2ccccc2)cc1)/c1ccc(N(c2ccccc2)c2ccccc2)cc1`, which absorption maximum (in ClCCl) is on record?
**A.** Its absorption maximum is 370 nm.

**Q.** For `CC1=N/C(=C\c2ccc(C#N)c(N(C)C)c2)C(=O)N1C`, which absorption maximum (in C1CCOC1) is on record?
**A.** Its absorption maximum is 368 nm.

**Q.** And the absorption maximum (in CC#N)?
**A.** Its absorption maximum is 369 nm.

**Q.** What about the absorption maximum (in CCCCCC) of the same molecule?
**A.** Its absorption maximum is 362 nm.

**Q.** For `CCN(CC)c1ccc(-c2nc(Oc3ccc(-c4nc5ccccc5s4)cc3)nc(Oc3ccc(-c4nc5ccccc5s4)cc3)n2)cc1`, which absorption maximum (in CN(C)C=O) is on record?
**A.** Its absorption maximum is 374 nm.

**Q.** Which absorption maximum (in C1COCCO1) does the source give for `CC/C=C/C=C/C=C/C=C/CCCCCCCC(=O)O` here?
**A.** Its absorption maximum is 317.3 nm.

**Q.** And the absorption maximum (in CCCCCC)?
**A.** Its absorption maximum is 313.5 nm.

**Q.** And the absorption maximum (in CCCCCCCCCC)?
**A.** Its absorption maximum is 315.3 nm.

**Q.** What about the absorption maximum (in CCCCO) of the same molecule?
**A.** The absorption maximum was 315.2 nm.

**Q.** What about the absorption maximum (in CCO) of the same molecule?
**A.** Its absorption maximum is 313.8 nm.

**Q.** What about the absorption maximum (in CCOCC) of the same molecule?
**A.** Its absorption maximum is 313.5 nm.

**Q.** What about the absorption maximum (in CO) of the same molecule?
**A.** The absorption maximum was 313 nm.

**Q.** And the absorption maximum (in ClC(Cl)Cl)?
**A.** The absorption maximum was 319.6 nm.

**Q.** And the absorption maximum (in c1ccccc1)?
**A.** The absorption maximum was 320 nm.

**Q.** Which absorption maximum (in c1ccc2c(c1)c1ccccc1n2-c1ccc(-c2ccc(-n3c4ccccc4c4ccccc43)cc2)cc1) does the source give for `N#Cc1cc(N2c3ccccc3Oc3ccccc32)c(N2c3ccccc3Oc3ccccc32)cc1C#N` here?
**A.** Its absorption maximum is 540 nm.

**Q.** Which absorption maximum (in C1CCOC1) does the source give for `CC(=O)O[B-]1(OC(C)=O)OC(/C=C/c2ccccc2)=CC(/C=C/c2ccccc2)=[O+]1` here?
**A.** The absorption maximum was 422 nm.

**Q.** And the absorption maximum (in CC#N)?
**A.** The absorption maximum was 422 nm.

**Q.** And the absorption maximum (in CC(C)=O)?
**A.** Its absorption maximum is 422 nm.

**Q.** What about the absorption maximum (in CS(C)=O) of the same molecule?
**A.** The absorption maximum was 428 nm.

**Q.** What about the absorption maximum (in Cc1ccccc1) of the same molecule?
**A.** The absorption maximum was 424 nm.

**Q.** What about the absorption maximum (in ClC(Cl)Cl) of the same molecule?
**A.** The absorption maximum was 426 nm.

**Q.** What about the absorption maximum (in ClCCl) of the same molecule?
**A.** The absorption maximum was 424 nm.

**Q.** With `COc1ccc(-c2c(-c3ccc(C)cc3)c3n(c2-c2ccc(C)cc2)[B-](F)(F)[N+]2=C(c4ccc(C)cc4)C(/C=C/C(=O)OC4CC[C@@]5(C)C(=CC[C@H]6[C@@H]7CC[C@H]([C@H](C)CCCC(C)C)[C@@]7(C)CC[C@@H]65)C4)=C(c4ccc(C)cc4)C2=N3)cc1` (stereo partly drawn) as the molecule, how does the absorption maximum (in ClC(Cl)Cl) read?
**A.** The absorption maximum was 662 nm.

**Q.** For `c1ccc(N(c2ccccc2)c2ccc(-c3nc4c5ccccc5c5ccccc5c4n3-c3ccccc3)cc2)cc1`, which absorption maximum (in ClCCl) is on record?
**A.** Its absorption maximum is 400 nm.
